Several values for one entry are separate records, joined by “and”; a condition that tells them apart may be missing. Identical values can stand only once.
Assays:
[1] = test system: pancreatic tumours in KPC mice; assay: Survival of KPC mice from start of treatment, Kaplan-Meier and Log-Rank (Examples 3 and 4); assay type: in vivo; conditions: for Median survival: KPC mice survival cohort
From the text: (§1) LSL-Kras^G12D/+; Trp53^R172H/+; Pdx1-Cre (KPC) mice have been described previously (Hingorani et al., 2005). Mice were generated by crossing mice bearing Pdx1-Cre, and conditional LSL-KrasG12D or LSL-Trp53R172H alleles (strains 01XJ6 and 01XL9, Mouse Models of Human Cancer Consortium [MMHCC], NCI-Frederick, Frederick, MD, USA). Mice on a mixed background were bred in-house at the CRUK Beatson Institute and maintained in conventional caging with environmental enrichment, access to standard chow and water ad libitum. Genotyping was performed by Transnetyx (Cordoba, TN, USA). Mice of both sexes were recruited onto study. All animal experiments were performed under a UK Home Office licence and approved by the University of Glasgow Animal Welfare and Ethical Review Board.
Mice were monitored 3 times weekly until a diagnosis of pancreatic cancer was made by abdominal palpation and confirmed by ultrasound imaging. […] There were >12 mice per group. Mice were monitored daily and sacrificed either at 7 days post-initiation of treatment (4 mice per group) or when reaching ethical endpoint (>8 mice per group, symptoms include abdominal distension, cachexia, intermittent hunching or reduced mobility, piloerection, mild diarrhoea, anaemia). Statistical assessment of survival of these mice from start of treatment was carried out by Kaplan-Meier and Log-Rank analysis.
Mice were monitored at least weekly by palpation until pancreatic tumours were detectable.
For the survival cohort (Table 4), high resolution ultrasound imaging was performed weekly over the treatment period in order to monitor the tumour burden of each individual mouse on treatment. Mice remained on study and were closely monitored until ethical endpoint was reached, at which time they were sacrificed as per institutional guidelines.

[2] = test system: pancreatic tumours in KPC mice; assay: Survival of KPC mice, Cox's proportional hazards model (Example 5); assay type: in vivo, mouse; conditions: for Median survival: KPC mice, Example 5 cohort (Table 8), Ab7326 mIgG1 30 mg/kg s.c. twice weekly, Selumetinib 25 mg/kg p.o. b.i.d., UCB-554 10 mg/kg p.o. every 2 days; for Hazard ratio Ab7326/treatment: comparator Ab7326 alone
From the text: as §1
(§2) Mice were monitored 3 times weekly until a diagnosis of pancreatic cancer was made by abdominal palpation and confirmed by ultrasound imaging. […] Mice were monitored daily and sacrificed when reaching ethical endpoint.
(§3) Statistical assessment of survival of these mice from start of treatment was carried out using a Cox's proportional hazards model to calculate hazard ratios. Tumour volume data at day 7 data were analysed using a linear model suitable for a randomised design, fitting Treatment Tumour volume at day 0 was used as a covariate to increase the precision of the estimates.

[3] = test system: pancreatic tumours in KPC mice; assay: Tumour volume by 3D ultrasound imaging in KPC mice (Example 5); assay type: in vivo, mouse
Procedure: The VisualSonics Vevo 3100 preclinical imaging platform (FUJIFILM VisualSonics, Toronto, Canada) was used for high-resolution ultrasound imaging to confirm tumour diagnosis and for weekly monitoring of tumour progression. Anaesthesia was induced and maintained with a mixture of isoflurane and medical air. Tumour volume was calculated weekly for each mouse and plotted longitudinally.
as §2, §3
The volume of the pancreatic tumours in control or treated KPC mice was measured over time using 3D tumour imaging by ultrasound.

SMILES	Median survival ([1]; Example 4, same doses as Table 4) [days]	Median survival ([1]; Table 4 (text b395 gives days), Ab7326 mIgG1 30 mg/kg s.c. twice weekly, Selumetinib 25 mg/kg p.o. b.i.d., Selumetinib arm historical data)	Days on Rx ([1]; survival of individual KPC mice on treatment, one line per mouse (Table 6))	Median survival [2] [days]	Hazard ratio Vehicle/treatment ([2]; Table 10, combined dataset Table 4 + Table 8, Cox model)	Hazard ratio Ab7326/treatment ([2]; Table 10, combined dataset Table 4 + Table 8)	tumour volume at day 7 after start of treatment compared to vehicle or Ab7326 treatment alone [3]	survival of KPC mice over vehicle only control or Ab7326 treatment ([2]; Example 5 cohort, in words)	Hazard ratio Vehicle/treatment ([2]; Table 9, Example 5 cohort, Cox model, >1 favours treatment)	Hazard ratio Ab7326/treatment ([2]; Table 9, Example 5 cohort, Cox model)
Cn1cnc2c(F)c(Nc3ccc(Br)cc3Cl)c(C(=O)NOCCO)cc21 [Selumetinib, 6-(4-bromo-2-chloroanilino)-7-fluoro-N-(2-hydroxyethoxy)-3-methylbenzimidazole-5-carboxamide]	17	17	9 Days and 13 Days and 15 Days and 17 Days (2×) and 20 Days and 32 Days and 33 Days	22	1.77	1.31	mean tumour volume is reduced	–	–	–
NCC1CN(C(=O)c2c(Nc3ccc(I)cc3F)sc3ncccc23)C1 [UCB-554, [3-(Aminomethyl)azetidin-1-yl]-{2-[(2-fluoro-4-iodophenyl)amino]thieno[2,3-b]pyridin-3-yl}-methanone]	–	–	–	21	–	–	tumour volume is reduced	moderate increase in survival	2.04	2.50

Reference: patent US20250228826A1, “COMBINATION OF A GREMLIN-1 ANTAGONIST WITH AN INHIBITOR OF RAS-RAF-MEK-ERK SIGNALLING” (UCB BIOPHARMA SRL, priority 2022, published 2025)
